In PubChem BioAssay AID248 (DTP/NCI, 2004):
Inconclusive results and toxic doses are left out. Cut-off read from the data, not from the text of the source: active = T/C of 150% or more; inactive = T/C below 125%.

System: L1210 leukemia ip in BDF1 mice, survival T/C
Assay: NCI In Vivo Anticancer Drug Screen. Data for tumor model L1210 Leukemia (intraperitoneal) in B6D2F1 (BDF1) mice
Conditions: endpoint: mean survival time, higher = longer survival
In short: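 Tumor cells were implanted, animals were treated, and survival was followed. The result divides the treated measurement by the vehicle-control measurement.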

[1] = dose: 100.0 mg/kg/injection, schedule: Q01DX009 (ip), vehicle: Klucel (hydroxypropylcellulose) (HPC)
[2] = dose: 100.0 mg/kg/injection, schedule: Q04DX003 (ip), vehicle: Klucel (hydroxypropylcellulose) (HPC)
[3] = dose: 200.0 mg/kg/injection, schedule: Q01DX009 (ip), vehicle: Klucel (hydroxypropylcellulose) (HPC)
[4] = dose: 200.0 mg/kg/injection, schedule: Q04DX003 (ip), vehicle: Klucel (hydroxypropylcellulose) (HPC)
[5] = dose: 400.0 mg/kg/injection, schedule: Q01DX009 (ip), vehicle: Klucel (hydroxypropylcellulose) (HPC)
[6] = dose: 400.0 mg/kg/injection, schedule: Q04DX003 (ip), vehicle: Klucel (hydroxypropylcellulose) (HPC)
[7] = dose: 100.0 mg/kg/injection, schedule: Q04DX002 (ip), vehicle: Klucel (hydroxypropylcellulose) (HPC)
[8] = dose: 200.0 mg/kg/injection, schedule: Q04DX002 (ip), vehicle: Klucel (hydroxypropylcellulose) (HPC)

Measured: T/C

COc1ccc(/C=C(C(=O)O)/C(=C/c2ccc(OC)c(OC)c2)C(=O)O)cc1OC
inactive: [1] 96 % of control | [2] 95 % of control | [3] 105 % of control | [4] 96 % of control | [5] 91 % of control | [6] 98 % of control

CC(=O)C1CCCC1=O (configuration not stated)
inactive: dose: 100.0 mg/kg/injection, schedule: Q01DX001 (ip), vehicle: acetone 103 % of control | dose: 100.0 mg/kg/injection, schedule: Q04DX003 (ip), vehicle: acetone 97 % of control | dose: 200.0 mg/kg/injection, schedule: Q01DX001 (ip), vehicle: acetone 97 % of control | dose: 200.0 mg/kg/injection, schedule: Q04DX003 (ip), vehicle: acetone 97 % of control | dose: 400.0 mg/kg/injection, schedule: Q01DX001 (ip), vehicle: acetone 95 % of control | dose: 400.0 mg/kg/injection, schedule: Q04DX003 (ip), vehicle: acetone 95 % of control

O=C(Nc1cccc(Cl)c1)c1ccc2ccccc2c1O
inactive: dose: 100.0 mg/kg/injection, schedule: Q01DX001 (ip), vehicle: saline with Tween-80 97 % of control | dose: 100.0 mg/kg/injection, schedule: Q01DX009 (ip), vehicle: saline with Tween-80 106 % of control | dose: 100.0 mg/kg/injection, schedule: Q04DX003 (ip), vehicle: saline with Tween-80 98 % of control | dose: 200.0 mg/kg/injection, schedule: Q01DX001 (ip), vehicle: saline with Tween-80 93 % of control | dose: 200.0 mg/kg/injection, schedule: Q01DX009 (ip), vehicle: saline with Tween-80 98 % of control | dose: 200.0 mg/kg/injection, schedule: Q04DX003 (ip), vehicle: saline with Tween-80 96 % of control | dose: 400.0 mg/kg/injection, schedule: Q01DX001 (ip), vehicle: saline with Tween-80 97 % of control | dose: 400.0 mg/kg/injection, schedule: Q01DX009 (ip), vehicle: saline with Tween-80 101 % of control | dose: 400.0 mg/kg/injection, schedule: Q04DX003 (ip), vehicle: saline with Tween-80 96 % of control

CCOC(=O)COc1ccc(C=O)cc1
inactive: [1] 110 % of control | [2] 102 % of control | [3] 96 % of control | [4] 96 % of control | [5] 98 % of control | [6] 97 % of control

[O]=[Zr]
inactive: dose: 25.0 mg/kg/injection, schedule: Q04DX003 (ip), vehicle: Klucel (hydroxypropylcellulose) (HPC) 90 % of control | dose: 50.0 mg/kg/injection, schedule: Q04DX003 (ip), vehicle: Klucel (hydroxypropylcellulose) (HPC) 88 % of control | [2] 88 % of control

CCS(=O)(=O)/C=C/c1ccc2ccccc2n1
inactive: [7] 104 % of control | [8] 100 % of control

CC(=O)NCC(C)C
inactive: dose: 100.0 mg/kg/injection, schedule: Q01DX009 (ip), vehicle: saline 101 % of control | dose: 200.0 mg/kg/injection, schedule: Q01DX009 (ip), vehicle: saline 108 % of control | dose: 400.0 mg/kg/injection, schedule: Q01DX009 (ip), vehicle: saline 105 % of control

O=C(O)CCC(=O)NCCNC(=O)CC(=O)O
inactive: dose: 100.0 mg/kg/injection, schedule: Q01DX001 (ip), vehicle: saline 100 % of control | dose: 200.0 mg/kg/injection, schedule: Q01DX001 (ip), vehicle: saline 105 % of control | dose: 400.0 mg/kg/injection, schedule: Q01DX001 (ip), vehicle: saline 100 % of control

Cc1cccc(C)c1NC(=S)N(CCC#N)C(C)C
inactive: [1] 103 % of control | [3] 106 % of control | [5] 96 % of control

COP(=O)(O)C(C)=O (tested in a mixture with another compound)
inactive: dose: 100.0 mg/kg/injection, schedule: Q04DX002 (ip), vehicle: other 96 % of control | dose: 200.0 mg/kg/injection, schedule: Q04DX002 (ip), vehicle: other 114 % of control | dose: 400.0 mg/kg/injection, schedule: Q04DX002 (ip), vehicle: other 101 % of control

CCOC(=O)Nc1c(O)cccc1N1CCOCC1
inactive: [7] 101 % of control | [8] 101 % of control | dose: 400.0 mg/kg/injection, schedule: Q04DX002 (ip), vehicle: Klucel (hydroxypropylcellulose) (HPC) 104 % of control
